Data: patent US20240417398A1, “TETRAHYDRONAPTHYRIDINE AND RELATED ANALOGS FOR INHIBITING YAP/TAZ-TEAD” (SpringWorks Therapeutics, Inc., priority 2023, published 2024)

Key:
Type in all cases: cell-based
[1] = system: YAP/TAZ-TEAD transcription; test: Reporter gene assay for measuring the inhibition of YAP/TAZ-TEAD transcription (TEAD-responsive element luciferase reporter, Hek293T cells); details: Hek293T cells transfected with TEAD-responsive element luciferase reporter, 24 hours incubation
Procedure: Hek293T cells were cultured in DMEM supplemented with 10% fetal bovine serum, Sodium pyruvate, Sodium bicarbonate, L-glutamine. The cells were harvested and transiently transfected with TEAD-responsive element luciferase reporter. Transfected cells were plated in 384-well plate containing pre-diluted compounds. After 24 hours incubation at 37° C./5% CO2, assay plates were cooled to room temperature and levelled to an equal volume per well, prior to the addition of 25 uL luciferase substrate SteadyLite (Perkin Elmer)/well. The plate was shaken for 10 min at 600 rpm, centrifuged for 1 min at 500 rpm and measured with an Envision reader (PerkinElmer). The amount of relative light units produced by the TEAD reporter was used to calculate the percentage of inhibition.
The percent of reporter inhibition was calculated in the presence of a positive control inhibitor (100% inhibition) versus a condition with the presence of the vehicle basal activity of the reporter (0% inhibition). The ability of a test compound to inhibit this activity was determined as: Percentage inhibition=[1-((RLU determined in the presence of vehicle−RLU determined for sample with test compound present) divided by (RLU determined in the presence of vehicle−RLU determined for sample with positive control inhibitor))]*100.
The activities of example compounds tested are depicted in Table 3. The activity ranges A, B and C refer to IC50 values in the reporter gene assay as follows: “A”: IC50<1 μM; “B”: 1 μM≤IC50 10 μM and “C”: IC50>10 μM; NT=not tested.

[2] = system: NCI-H226; test: Mesothelioma cell line proliferation assay (ATPlite), NCI-H226; details: NCI-H226 cells, 6 days with compound, ATPlite cell viability
Procedure: (§1) Mesothelioma cell lines, NCI-H226 and NCI-H2052 (both sourced from the ATCC cell culture collection) were plated in 96-well plates (Corning® 96 Well White Polystyrene Microplate clear flat bottom, white polystyrene (TC-Treated)), at 1500 cells/well in full medium (RPMI 1640 ATCC modification with L-glutamine, HEPES, Phenol Red, Sodium Pyruvate, High glucose, Low sodium bicarbonate and 10% fetal bovine serum). Cells were incubated overnight at 37° C. in an incubator with 5% CO2. Then compounds, dissolved in DMSO, were added in dose-response. Cells were incubated with compound dilutions for another 6 days at 37° C. in an incubator with 5% CO2. Cell viability was quantitated using the ATPlite kit (Perkin-Elmer) and the luminescence was read-out using an Envision instrument (Perkin-Elmer). The amount of relative light units produced using the ATPlite kit was used to calculate percent of inhibition.
(§2) The activities of some example compounds are depicted in Table 4. The activity ranges A, B and C refer to EC50 values in the mesothelioma cell line proliferation assay as described as follows: “A”: EC50<1 μM; “B”: 1 μM≤EC50<10 μM and “C”: EC50>10 μM; NT: not tested.

[3] = system: NCI-H2052; test: Mesothelioma cell line proliferation assay (ATPlite), NCI-H2052; details: NCI-H2052 cells, 6 days with compound, ATPlite cell viability
Procedure: as §1, §2

Row | SMILES | IC50 ([1]; Homo sapiens, HEK-293T, 24 h) | EC50 [2] | IC50 [1] | EC50 ([2]; Homo sapiens, 144 h) | EC50 ([3]; Homo sapiens, 144 h) | EC50 [3]
1 | C=CC(=O)NCC1Cc2c(OCc3cc[nH]c(=O)c3)cccc2N(c2ccc(C(F)(F)F)cc2)C1 (single isomer, unassigned) [Cpd. No. 6-En1, (R)- or (S)-N-((5-((2-oxo-1,2-dihydropyridin-4-yl)methoxy)-1-(4-(trifluoromethyl)phenyl)-1,2,3,4-tetrahydroquinolin-3-yl)methyl)acrylamide] | < 1000 nM | < 1000 nM |  |  |  | 
2 | C=CC(=O)NCC1Cc2c(OCc3cc[nH]c(=O)c3)cccc2N(c2ccc(C(F)(F)F)cc2)C1 (single isomer, unassigned) [Cpd. No. 6-En2, (R)- or (S)-N-((5-((2-oxo-1,2-dihydropyridin-4-yl)methoxy)-1-(4-(trifluoromethyl)phenyl)-1,2,3,4-tetrahydroquinolin-3-yl)methyl)acrylamide] |  |  | < 1000 nM | < 1000 nM | < 1000 nM | 
3 | C=CC(=O)NCC1Cc2ncccc2N(c2ccc(C(F)(F)F)cc2)C1 (single isomer, unassigned) [Cpd. No. 10-En1, (R)- or (S)-N-((1-(4-(trifluoromethyl)phenyl)-1,2,3,4-tetrahydro-1,5-naphthyridin-3-yl)methyl)acrylamide] | < 1000 nM |  |  | < 1000 nM | < 1000 nM | 
4 | CC(=O)NCC1Cc2ncccc2N(c2ccc(C(F)(F)F)cc2)C1 (single isomer, unassigned) [Cpd. No. 12-En2, (R)- or (S)-N-((1-(4-(trifluoromethyl)phenyl)-1,2,3,4-tetrahydro-1,5-naphthyridin-3-yl)methyl)acetamide] |  |  | < 1000 nM | < 1000 nM | < 1000 nM | 
5 | C=CC(=O)NCC1Cc2c(OCc3cc(=O)[nH]c(=O)n3C)cccc2N(c2ccc(C(F)(F)F)cc2)C1 (single isomer, unassigned) [Cpd. No. 14-En1, (R)- or (S)-N-((5-((3-methyl-2,6-dioxo-1,2,3,6-tetrahydropyrimidin-4-yl)methoxy)-1-(4-(trifluoromethyl)phenyl)-1,2,3,4-tetrahydroquinolin-3-yl)methyl)acrylamide] | < 1000 nM |  |  | < 1000 nM | < 1000 nM | 
6 | C=CC(=O)NCC1Cc2c(OCc3cc(=O)[nH]c(=O)n3C)cccc2N(c2ccc(C(F)(F)F)cc2)C1 (single isomer, unassigned) [Cpd. No. 14-En2, (R)- or (S)-N-((5-((3-methyl-2,6-dioxo-1,2,3,6-tetrahydropyrimidin-4-yl)methoxy)-1-(4-(trifluoromethyl)phenyl)-1,2,3,4-tetrahydroquinolin-3-yl)methyl)acrylamide] |  | < 1000 nM |  |  |  | < 1000 nM
7 | CCC(=O)NCC1Cc2ncccc2N(c2ccc(C(F)(F)F)cc2)C1 (single isomer, unassigned) [Cpd. No. 17-En2, (R)- or (S)-N-((1-(4-(trifluoromethyl)phenyl)-1,2,3,4-tetrahydro-1,5-naphthyridin-3-yl)methyl)propionamide] |  |  | < 1000 nM | < 1000 nM | < 1000 nM | 
8 | COc1ccc2c(n1)CC(CNC(C)=O)CN2c1ccc(C(F)(F)F)cc1 (single isomer, unassigned) [Cpd. No. 22-En2, (R)- or (S)-N-((6-methoxy-1-(4-(trifluoromethyl)phenyl)-1,2,3,4-tetrahydro-1,5-naphthyridin-3-yl)methyl)acetamide] |  |  | < 1000 nM | < 1000 nM | < 1000 nM | 
9 | CC(=O)NCC1Cc2nc(C)ccc2N(c2ccc(C(F)(F)F)cc2)C1 (single isomer, unassigned) [Cpd. No. 26-En2, (R)- or (S)-N-((6-methyl-1-(4-(trifluoromethyl)phenyl)-1,2,3,4-tetrahydro-1,5-naphthyridin-3-yl)methyl)acetamide] |  |  | < 1000 nM | < 1000 nM | < 1000 nM | 
10 | [2H]C([2H])([2H])C(=O)NCC1Cc2ncccc2N(c2ccc(C(F)(F)F)cc2)C1 (single isomer, unassigned) [Cpd. No. 34-En2, (R)- or (S)-N-((1-(4-(trifluoromethyl)phenyl)-1,2,3,4-tetrahydro-1,5-naphthyridin-3-yl)methyl)acetamide-2,2,2-d3] |  |  | < 1000 nM | < 1000 nM | < 1000 nM | 
11 | CC(=O)NCC1(C)Cc2ncccc2N(c2ccc(C(F)(F)F)cc2)C1 (single isomer, unassigned) [Cpd. No. 47-En1, (R)- or (S)-N-((3-methyl-1-(4-(trifluoromethyl)phenyl)-1,2,3,4-tetrahydro-1,5-naphthyridin-3-yl)methyl)acetamide] |  |  | < 1000 nM | < 1000 nM | < 1000 nM | 
12 | C=CC(=O)NCC1Cc2c(OCc3cc(=O)[nH]c(=O)[nH]3)cccc2N(c2ccc(C(F)(F)F)cc2)C1 (stereo not shown) [Cpd. No. 4, N-((5-((2,6-dioxo-1,2,3,6-tetrahydropyrimidin-4-yl)methoxy)-1-(4-(trifluoromethyl)phenyl)-1,2,3,4-tetrahydroquinolin-3-yl)methyl)acrylamide] | < 1000 nM |  |  | < 1000 nM | < 1000 nM | 
13 | C=CC(=O)NCC1Cc2c(OCc3cc[nH]c(=O)c3)cccc2N(c2ccc(C(F)(F)F)cc2)C1 (stereo not shown) [Cpd. No. 6, N-((5-((2-oxo-1,2-dihydropyridin-4-yl)methoxy)-1-(4-(trifluoromethyl)phenyl)-1,2,3,4-tetrahydroquinolin-3-yl)methyl)acrylamide] | < 1000 nM |  |  | < 1000 nM | < 1000 nM | 
14 | CCC(=O)NCC1Cc2c(OCc3cc[nH]c(=O)c3)cccc2N(c2ccc(C(F)(F)F)cc2)C1 (stereo not shown) [Cpd. No. 7, N-((5-((2-oxo-1,2-dihydropyridin-4-yl)methoxy)-1-(4-(trifluoromethyl)phenyl)-1,2,3,4-tetrahydroquinolin-3-yl)methyl)propionamide] | < 1000 nM |  |  | < 1000 nM | < 1000 nM | 
15 | C=CC(=O)NCC1Cc2ncccc2N(c2ccc(C(F)(F)F)cc2)C1 (stereo not shown) [Cpd. No. 10, N-((1-(4-(trifluoromethyl)phenyl)-1,2,3,4-tetrahydro-1,5-naphthyridin-3-yl)methyl)acrylamide] | < 1000 nM |  |  | < 1000 nM | < 1000 nM | 
16 | C=CC(=O)NCC1Cc2c(CCN3CC(=O)NC(=O)C3)cccc2N(c2ccc(C(F)(F)F)cc2)C1 (stereo not shown) [Cpd. No. 11, N-((5-(2-(3,5-dioxopiperazin-1-yl)ethyl)-1-(4-(trifluoromethyl)phenyl)-1,2,3,4-tetrahydroquinolin-3-yl)methyl)acrylamide] | < 1000 nM |  |  | < 1000 nM | < 1000 nM | 
17 | CC(=O)NCC1Cc2ncccc2N(c2ccc(C(F)(F)F)cc2)C1 (stereo not shown) [Cpd. No. 12, N-((1-(4-(trifluoromethyl)phenyl)-1,2,3,4-tetrahydro-1,5-naphthyridin-3-yl)methyl)acetamide] | < 1000 nM |  |  | < 1000 nM | < 1000 nM | 
18 | C=CC(=O)NCC1Cc2c(OCc3cc(=O)[nH]c(=O)n3C)cccc2N(c2ccc(C(F)(F)F)cc2)C1 (stereo not shown) [Cpd. No. 14, N-((5-((3-methyl-2,6-dioxo-1,2,3,6-tetrahydropyrimidin-4-yl)methoxy)-1-(4-(trifluoromethyl)phenyl)-1,2,3,4-tetrahydroquinolin-3-yl)methyl)acrylamide] | < 1000 nM |  |  | < 1000 nM | < 1000 nM | 
19 | CC(=O)NCC1Cc2nc(C)ccc2N(c2ccc(C(F)(F)F)cc2)C1 (stereo not shown) [Cpd. No. 26, N-((6-methyl-1-(4-(trifluoromethyl)phenyl)-1,2,3,4-tetrahydro-1,5-naphthyridin-3-yl)methyl)acetamide] | < 1000 nM |  |  | < 1000 nM | < 1000 nM | 
